Laboratory results taken from patent US8278482B2, “Antimicrobial N-chlorinated compositions” (priority 2008, dated 2012).
Where two headings read alike, the source gives them in different places.

Assays:
Format in all cases: cell-based
[1] = system: Staphylococcus aureus (ATCC 29213); test: Antimicrobial activity (MBC), S. aureus ATCC 29213
Experimental: (§1) To determine antimicrobial activity, Escherichia coli (ATCC 25922), Staphylococcus aureus (ATCC 29213), Pseudomonas aeruginosa (ATCC 27853), and Candida albicans (ATCC 10231) were used in primary screening. In addition, Escherichia coli (MCC 80392), Staphylococcus aureus (MCC 91731), Pseudomonas aeruginosa (MCC 4438), and Candida albicans (MCC 50319), provided by Alcon Laboratories, Fort Worth, Tex., were used. The microbial cultures were diluted in sterile saline pH 4 to prepare inocula. Test compounds were titrated by stepwise two-fold dilutions in sterile saline pH 4. A total of 1.0×10^5 to 1.0×10^6 Colony Forming Units (CFU)/mL microbe was added to each tube, mixed by gentle vortexing, and then incubated at room temperature for 1 h. Microbial plating on Petri dishes (Tryptic Soy agar or Saboraud's Dextrose agar) was performed immediately after the designated exposure after neutralization of the test article dilutions in Dey-Engley Broth. Plates were incubated at 37° C., and the numbers of microbes were counted by direct colony count to quantitate the surviving microbes as CFU/mL. Positive growth controls were made with sterile 0.9% saline. Compounds were dissolved in unbuffered isotonic saline (SAL) or phosphate buffered saline (PBS) at pH 4 or pH 7 (using HCl and/or NaOH as needed). All compounds were tested three times. The results are tabulated to show the comparison of antimicrobial effectiveness range of the compounds.
(§2) Data shown are the Minimum Bactericidal Concentration (MBC) or Minimum Fungicidal Concentration (MFC) (≧99.9% kill) in μg/mL.

[2] = system: Candida albicans (ATCC 10231); test: Antimicrobial activity (MFC), C. albicans ATCC 10231; conditions: ATCC10231, C. albicans ATCC 10231, pH 4 (Sal), 1 h exposure at room temperature, read-out: Minimum Fungicidal Concentration (MFC) (≧99.9% kill)
Experimental: as §1, §2

[3] = system: Escherichia coli (ATCC 25922); test: Antimicrobial activity (MBC), E. coli ATCC 25922
Experimental: as §1, §2

[4] = system: mouse fibroblast cells (ATCC CCL-1, L929); test: Cytotoxicity, WST-8 colorimetric assay; conditions: 60 min exposure
Experimental: Cytotoxicity was assessed by a colorimetric assay system using the Dojindo™ cell counting kit containing 2-(2-methoxy-4-nitrophenyl)-3-(4-nitrophenyl)-5-(2,4-disulfophenyl)-2H-tetrazolium, monosodium salt (WST-8). In this assay, the WST-8 reagent was bioreduced by cellular dehydrogenases to a formazan product that is highly soluble in tissue culture medium.
In a standard assay, mouse fibroblast cells (ATCC CCL-1, L929), were cultured in Minimum Essential Medium, α-medium supplemented with 10% heat inactivated fetal bovine serum, L-glutamine, penicillin and streptomycin. Cells were trypsinized and counted under the microscope and seeded at 1.5×10^4 total cells per 100 μL per well of a flat-bottom 96-well plate in order to achieve ˜80% confluence after overnight incubation at 37° C. On the day of the assay, the tissue culture medium was removed and replaced with 30 μL of fresh medium.
Test articles were prepared as 2-fold serial dilutions and 170 μL of each dilution is added into each of 4-wells (total volume per well=200 μL). The test plate was then returned to the 37° C. incubator for 60 min. Immediately after the exposed time, test article from each well was replaced with 200 μL of fresh media. Plates were incubated at 37° C. for 18-20 hours. The following day growth medium was replaced with 100 μL/well of fresh medium containing 10 μL WST-8 reagent. Cells were incubated under growth conditions (5% CO2 at 37° C. humidified incubator), protected from light, until color development was achieved (usually 1-4 hours). Absorbance was read at 450 nm with reference wavelength at 750 nm using Molecular Device SpectraMax M5 plate reader. Untreated or vehicle only treated cells receiving WST-8 reagent served as positive cell proliferation controls.
The absorbance A450/750 from each well of untreated cells and from each well within the dilution series was measured. […] Next, a non-linear regression (curve fit) analysis was performed on all the absorbance data measured from the dilution series, including the absorbance data obtained from wells of the untreated control cells. For each dilution within the dilution series, an average A450/750 was calculated from the four replicate wells.

[5] = ATCC29213, S. aureus ATCC 29213, pH 4 (Sal), 1 h exposure at room temperature, read-out: Minimum Bactericidal Concentration (MBC) (≧99.9% kill)
[6] = ATCC25922, E. coli ATCC 25922, pH 4 (Sal), 1 h exposure at room temperature, read-out: Minimum Bactericidal Concentration (MBC) (≧99.9% kill)
[7] = ATCC25922, E. coli ATCC 25922, pH 7 (PBS), 1 h exposure at room temperature, read-out: Minimum Bactericidal Concentration (MBC) (≧99.9% kill)

Row | SMILES | MBC [1, 5] [µg/mL] | MFC [2] [µg/mL] | MBC [3, 6] [µg/mL] | CT50 (concentration that results in survival of 50% of the cells) ([4]; pH 4 (Sal)) [mM] | MBC [3, 7] [µg/mL] | MBC ([1]; ATCC29213, 1 h, pH 4, read-out: Minimum Bactericidal Concentration (MBC) (≧99.9% kill)) [µg/mL] | MBC ([3]; ATCC25922, 1 h, pH 4, read-out: Minimum Bactericidal Concentration (MBC) (≧99.9% kill)) [µg/mL] | CT50 (concentration that results in survival of 50% of the cells) ([4]; pH 7 (PBS)) [mM] | CT50 (concentration that results in survival of 50% of the cells) ([4]; pH 4 (Acetate)) [mM]
1 | CC(C)(CCS(=O)(=O)CC[N+](C)(C)C)N(Cl)Cl.[Cl-] [Compound 21-02, 2-(3-(Dichloroamino)-3-methylbutylsulfonyl)-N,N,N-trimethylethanammonium chloride] | 2 | 32 | 8 | <0.03 | – | – | – | – | –
2 | CN(CC[N+](C)(C)C)C(=O)CC(C)(C)N(Cl)Cl.[Cl-] [Compound 21-14, 2-(3-(Dichloroamino)-N,3-dimethylbutanamido)-N,N,N-trimethylethanaminium chloride] | 2 | 32 | 16 | – | 256 | – | – | – | –
3 | CCCC[N+](C)(CCCC)CCC(C)(C)N(Cl)Cl [Compound 21-48, N,N-Dibutyl-3-(dichloroamino)-N-3-dimethylbutan-1-aminium chloride] | – | – | – | – | – | 4 | 16 | – | –
4 | CC(C)(C[N+]1(C)CCCCC1)N(Cl)Cl.[Cl-] [Compound 21-78, 1-(2-(dichloroamino)-2-methylpropyl)-1-methylpiperidinium chloride] | 8 | 64 | 16 | – | – | – | – | – | –
5 | C[S+](C)CC(C)(C)N(Cl)Cl.[Cl-] [Compound 21-86, (2-(Dichloroamino)-2-methylpropyl)dimethylsulfonium chloride] | 4 | 128 | 8 | – | – | – | – | 0.6 | –
6 | CC(C)(C[N+](C)(C)CCS(=O)(=O)O)N(Cl)Cl.[Cl-] [Compound 21-90, 2-(Dichloroamino)-N,N-2-trimethyl-N-(2-sulfoethyl)propan-1-ammonium chloride] | 16 | 128 | 64 | – | – | – | – | – | –
7 | CC(C)(c1cn(CC[N+](C)(C)C)nn1)N(Cl)Cl.[Cl-] [Compound 21-92, 2-(4-(2-(Dichloroamino)propan-2-yl)-1H-1,2,3-triazol-1-yl)-N,N,N-trimethylethanaminium chloride] | 4 | 32 | 8 | – | – | – | – | – | –
8 | CC(C)(CC(=O)OCC[N+]1(C)CCCCC1)N(Cl)Cl.[Cl-] [Compound 21-93, 1-(2-(3-(Dichloroamino)-3-methylbutanoyloxy)ethyl)-1-methylpiperidinium chloride] | 2 | – | 4 | – | 512 | – | – | – | –
9 | CC(C)(CCC[P+](C)(C)C)N(Cl)Cl.[Cl-] [Compound 21-106, (4-(Dichloroamino)-4-methylpentyl)trimethylphosphonium chloride] | 2 | > 256 | 4 | – | – | – | – | – | –
10 | CC(C)(CCC[N+](C)(C)C)N(Cl)Cl.[Cl-] [Compound 21-108] | 2 | 256 | 8 | – | – | – | – | – | –
11 | CC(=O)N1CC[N+](C)(CC(C)(C)N(Cl)Cl)CC1.[Cl-] [Compound 21-110, 4-Acetyl-1-(2-(dichloroamino)-2-methylpropyl)-1-methylpiperazin-1-ium chloride] | 16 | > 1020 | 64 | 0.9 | – | – | – | – | –
12 | CC(C)(CCS(=O)(=O)CCC[N+](C)(C)C)N(Cl)Cl.[Cl-] [Compound 21-112, S-3-(3-(Dichloroamino)-3-methylbutylsulfonyl)-N,N,N-trimethylpropan-1-ammonium chloride] | 2 | 32 | 8 | 1.4 | – | – | – | – | –
13 | CC(C)(CC[N+]1(C)CCC(F)(F)CC1)N(Cl)Cl.[Cl-] [Compound 21-116, 1-(3-(Dichloroamino)-3-methylbutyl)-4,4-difluoro-1-methylpiperidinium chloride] | 2 | 32 | 4 | 3.0 | – | – | – | – | –
14 | CC(C)(CC[N+]1(C)CCCCCC1)N(Cl)Cl.[Cl-] [Compound 21-118, 1-(3-(Dichloroamino)-3-methylbutyl)-1-methylazepanium chloride] | 4 | 16 | 4 | 0.9 | – | – | – | – | –
15 | CC(C)(CC[N+]12CCC(CC1)CC2)N(Cl)Cl [Compound 21-120, 1-(3-(Dichloroamino)-3-methylbutyl)-1-azoniabicyclo[2.2.2]octane methanesulfonate] | 2 | 32 | 8 | – | – | – | – | – | 1.3
16 | CC1(C)CC[N+](C)(CCC(C)(C)N(Cl)Cl)CC1.[Cl-] [Compound 21-122, 1-(3-(Dichloroamino)-3-methylbutyl)-1,4,4-trimethylpiperidinium chloride] | 4 | – | 16 | – | – | – | – | – | 1.0
17 | CCCC[N+](C)(C)CCC(C)(C)N(Cl)Cl.[Cl-] [Compound 21-124, N-Butyl-3-(dichloroamino)-N,N,3-trimethylbutan-1-ammonium chloride] | 2 | 64 | 8 | – | – | – | – | – | 1.0
18 | CC(C)(CC[N+](C)(C)C1CCCCC1)N(Cl)Cl.[Cl-] [Compound 21-126, N-(3-(Dichloroamino)-3-methylbutyl)-N,N-dimethylcyclohexanammonium chloride] | 4 | > 1020 | 16 | – | – | – | – | – | 0.6
19 | CC(C)(CC[N+](C)(C)CCC[N+](C)(C)C)N(Cl)Cl.[Cl-].[Cl-] [Compound 21-128, N^1-(3-(Dichloroamino)-3-methylbutyl)-N^1,N^1,N^3,N^3,N^3-pentamethylpropane-1,3-diammonmium chloride] | 4 | 128 | 16 | – | – | – | – | – | 1.3
20 | CC(C)(CC[N+]1(C)CCCC1)N(Cl)Cl.[Cl-] [Compound 21-130, 1-(3-(Dichloroamino)-3-methylbutyl)-1-methylpyrrolidinium chloride] | 2 | 32 | 4 | – | – | – | – | – | –
21 | CC(C)(CC[N+](C)(C)CC(F)(F)F)N(Cl)Cl.[Cl-] [Compound 21-132, 3-(Dichloroamino)-N,N,3-trimethyl-N-(2,2,2-trifluoroethyl)butan-1-ammonium chloride] | 2 | 32 | 4 | – | – | – | – | – | –
22 | CC[N+](C)(C)CCC(C)(C)N(Cl)Cl.[Cl-] [Compound 21-134, 3-(Dichloroamino)-N-ethyl-N,N,3-trimethylbutan-1-ammonium chloride] | – | – | – | – | – | – | – | – | 1.4
23 | CCCCCCCCCCCC[N+](C)(C)CCC(C)(C)N(Cl)Cl [Compound 21-138, N-(3-(Dichloroamino)-3-methylbutyl)-N,N-dimethyldodecan-1-ammonium chloride] | – | – | – | – | – | – | – | – | 0.5
